Assay results from paper PMC7016952, “Characterization of the Menin-MLL Interaction as Therapeutic Cancer Target” (Cancers, 2020).

How the values were obtained:
MOLM-13 xenograft = MOLM-13 xenograft efficacy; assay type: in vivo, mice; settings: p.o.
Procedure: (§1) Tumor cells were injected subcutaneously into the flanks of 6- to 9-week old animals. Efficacy studies in xenograft models were performed at Bayer or EPO GmbH (Berlin-Buch, Germany) using NMRI nu/nu, SCID, BALB/c Nude female mice or SCID male mice (VCaP tumors). All animal studies were conducted in accordance with the animal welfare laws and were approved by the State Office for Health and Social Affairs Berlin (LAGeSo). Experiments were run under the animal license B3600a0007. Compound treatment started at a predefined tumor size or burden or at a predefined day after cell inoculation. BAY-155 was administered orally (p.o.) at various doses and regorafenib, tamoxifen and enzalutamide (resuspended in PEG400/H2O 6/4 or PEG400/EtOH 9/1) were used as control treatment for RKO, MCF7 and VCaP xenografts, respectively. Subcutaneous tumor volumes were determined by caliper measurement.

menin-MLL interaction = biological target: T1, menin-MLL interaction (Homo sapiens, UniProt O00255); assay: TR-FRET menin-MLL binding assay; settings: BAY-155 vs MI-503
T1 construct: recombinant full length, His-tagged menin
T1 sequence (O00255 1-610): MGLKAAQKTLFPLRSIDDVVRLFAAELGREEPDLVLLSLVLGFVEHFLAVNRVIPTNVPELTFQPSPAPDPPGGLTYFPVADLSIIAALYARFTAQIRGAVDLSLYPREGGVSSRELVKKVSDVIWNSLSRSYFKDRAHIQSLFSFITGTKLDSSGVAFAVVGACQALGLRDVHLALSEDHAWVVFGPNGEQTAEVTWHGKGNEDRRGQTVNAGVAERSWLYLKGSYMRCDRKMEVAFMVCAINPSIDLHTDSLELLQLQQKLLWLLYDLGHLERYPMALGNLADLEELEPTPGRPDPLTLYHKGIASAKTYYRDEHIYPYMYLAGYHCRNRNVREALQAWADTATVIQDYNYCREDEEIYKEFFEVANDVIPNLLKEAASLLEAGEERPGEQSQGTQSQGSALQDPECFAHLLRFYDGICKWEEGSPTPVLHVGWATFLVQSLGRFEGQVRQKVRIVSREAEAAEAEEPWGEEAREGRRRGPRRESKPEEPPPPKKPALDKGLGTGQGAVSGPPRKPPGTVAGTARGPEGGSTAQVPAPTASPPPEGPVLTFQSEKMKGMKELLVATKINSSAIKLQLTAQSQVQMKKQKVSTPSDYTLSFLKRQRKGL

[1] = tested on: ER signaling pathway genes in MCF7 tumor samples; assay: Ex vivo gene expression in MCF7 xenografts; parameters: species or system mice; settings: 27 days of treatment
Procedure: (§2) Total RNA was isolated using RNeasy-Plus Mini kit (Qiagen, Hilden, Germany). RNA (1 μg) was reverse transcribed using SuperScript III First-Strand Synthesis SuperMix (Life Technologies) and the generated cDNA was analyzed with commercial primers (Supplementary Materials Table S1) by qRT-PCR using TaqMan Fast Advanced Master Mix (Life Technologies). For the RNA-seq study, ZR-75-1, BT474, PANC-1, MiaPaCa-2, 22RV1, JMSU-1, DLD-1, SW1463, LoVo and G401 cells were treated with 5 µM BAY-155 or DMSO for 48 h prior to RNA extraction. After 48 h of 5 µM BAY-155 or DMSO treatment, MCF7, VCaP and LNCaP cells were stimulated for further 12 h with 0.1 nM of E2 (ß-Estradiol) or 1 nM R1881, respectively. MCF7, VCaP and LNCaP cells were cultured in starvation medium (containing 5 µM BAY-155 or DMSO) 6 h before stimulation. RNA was isolated using RNeasy-Plus Mini kit (Qiagen). The purified RNA was used for library preparation (Illumina, San Diego, CA, USA. TruSeq Stranded mRNA Kit) and the generated libraries were sequenced (Illumina, HiSeq2500 HTv4, SR, dual-indexing, 50 cycles).
Tumors were harvested, dissociated and total RNA was extracted using the TissueLyser (Qiagen, Hilden, Germany) together with RNeasy-Plus Mini kit according to the manufacturer protocol.

VCaP xenograft = VCaP xenograft efficacy; assay type: in vivo, mice
Procedure: as §1

CYP 2C8 = CYP 2C8 (Homo sapiens, UniProt P10632); settings: cited from earlier work
CYP enzymes = settings: cited from earlier work
MV4;11 cells = assay: Proliferation inhibition, MV4;11; assay type: cell-based, human; settings: MV4;11
[2] = cited from earlier work
[3] = cited from earlier work; remark: listed apart in the source
[4] = tested on: safety pharmacology relevant proteins (GPCRs, ion channels and transporters); assay: Selectivity panel of safety pharmacology assays; settings: 10 µM
VCaP cells = assay: RNA-seq after R1881 stimulation, VCaP; assay type: cell-based, human
Procedure: as §2
(§3) RNA-seq reads were aligned to hg38 using STAR aligner. Protein-coding genes with more than 10 reads in more than three samples were used for the analysis (total samples N = 86; genes N = 13,003). DESeq2 was used to find genes differentially expressed upon treatment by the menin inhibitor in each cell line compared to DMSO or hormonal treatment (for MCF-7, LNCaP and VCaP cell lines). […] GSEA analysis was run on the pre-ranked list based on logFC in prostate (VCaP and LNCaP) and breast (MCF7) cell lines. Data are available at GEO under accession number GSE136272.

LNCaP cells = assay: RNA-seq after R1881 stimulation, LNCaP; assay type: cell-based
Procedure: as §2, §3

ZR-75-1 cells = assay: RNA-seq differential gene expression, ZR-75-1; assay type: cell-based; settings: ZR-75-1, 5 µM, 48 h
Procedure: as §2
RNA-seq reads were aligned to hg38 using STAR aligner. Protein-coding genes with more than 10 reads in more than three samples were used for the analysis (total samples N = 86; genes N = 13,003). […]

Chain of CYP 2C8 (P10632 whole entry): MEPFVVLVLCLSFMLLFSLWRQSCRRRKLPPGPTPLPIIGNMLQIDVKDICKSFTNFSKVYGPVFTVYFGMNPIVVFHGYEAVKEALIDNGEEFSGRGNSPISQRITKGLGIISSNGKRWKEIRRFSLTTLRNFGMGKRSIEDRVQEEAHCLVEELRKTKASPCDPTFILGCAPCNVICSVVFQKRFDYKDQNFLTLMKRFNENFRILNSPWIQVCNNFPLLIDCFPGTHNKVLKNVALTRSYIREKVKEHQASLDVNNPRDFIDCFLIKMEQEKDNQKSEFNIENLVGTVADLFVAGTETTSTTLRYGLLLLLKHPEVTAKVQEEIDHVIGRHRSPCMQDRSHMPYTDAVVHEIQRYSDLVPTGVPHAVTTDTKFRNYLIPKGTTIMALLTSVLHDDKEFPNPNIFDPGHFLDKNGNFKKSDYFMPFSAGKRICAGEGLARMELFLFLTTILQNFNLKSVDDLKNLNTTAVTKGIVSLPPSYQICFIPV

Cc1c(CN2CCC3(CC2)CN(c2ncnc4sc(CC(F)(F)F)cc24)C3)ccc2c1cc(C#N)n2CC(N)=O [BAY-155]
tumor volume (MOLM-13 xenograft): dose-dependent inhibition of tumor volume | tumor weight (MOLM-13 xenograft): significant reduction of tumor weight | fold better inhibitory IC50 compared to MI-503 (menin-MLL interaction): 10 fold | EGR3, GREB1 and PGR1 expression ex vivo [1]: no significant effects | tumor volume and tumor weight (VCaP xenograft): no significant effects | IC50 (CYP 2C8): > 20 µM | inhibition of CYP enzymes (in words) (CYP enzymes): no inhibition | fold improved proliferation inhibition vs MI-503 (MV4;11 cells): 2.8 fold | CLblood (metabolic stability in rat hepatocytes, as worded in text) [2]: 18.3 mL/min/kg | Caco2 permeability Papp(A-B) ([3]; Caco-2, pH 7.2): 2.64 ×10⁻⁶ cm/s | Caco2 permeability efflux ratio ([3]; Caco-2): 6.4 | number of tested proteins inhibited by ≥ 50% [4]: 7 | cases in which an IC50 value could be reached ([4]; of 77 targets): 7/77 | GSEA of androgen-regulated gene sets (VCaP cells): significant reversal of androgen-induced gene expression changes | genes down-regulated by androgen stimulation that were elevated (VCaP cells; 5 µM, R1881): 182 genes | genes up-regulated by androgen stimulation that were repressed (VCaP cells; 5 µM, R1881): 36 genes | GSEA of androgen-regulated gene sets (LNCaP cells): significant reversal of androgen-induced gene expression changes | genes down-regulated by androgen stimulation that were reversed (LNCaP cells; 5 µM, R1881): 141 genes | genes up-regulated by androgen stimulation that were reversed (LNCaP cells; 5 µM, R1881): 24 genes | number of differentially expressed genes (ZR-75-1 cells): 10 genes
